How the values were obtained:
[1] = system: TNF-α-ARE luciferase reporter in MDA-MB-231 cells; test: Post-transcriptional ARE luciferase reporter assay (kinase inhibitor library screen); assay type: cell-based; settings: for reduction of ARE-reporter activity (in words): PK inhibitor library
From the text: Reporters were designed to be driven by the ribosomal protein subunit 30 (RPS30) promoter. The promoter was amplified using PCR with primers specific to the flanking region of the RPS30 promoter sequence. The gene structure of RPS30 was obtained from the Ribosomal Protein Database (http://ribosome.med.miyazaki-u.ac.jp). The forward and reverse primers included the restriction sites, EcoR V and SalI sites. Amplified DNA fragments were then resolved in 1.2%-1.5% agarose gel and the amplicon bands were excised, purified and cloned into the promoterless plasmid. TNF-α 3′-UTR and TNF-α ARE were used to study the role of AU-rich elements in the action of PKs inhibitors. The AU-rich sequence that comprised 250 bases from TNF-α 3′UTR (1200-1450 bp, NM_00059) was amplified by PCR using the forward primer 5′-[…]-3′ (SEQ ID NO:1) and the reverse primer 5′-[…]-3′ (SEQ ID NO:2). The TNF-α-ARE sequence was made by annealing two synthetic complementary oligonucleotides of 70 bases that correspond to TNF-α ARE. The control reporter was constructed to have the basic structure of post-transcriptional reporter except 3′UTR which lack the AU-rich element sequence like this of bovine growth hormone. Any ARE reiterations or variations can be used, with minimal sequence is AUUUA, preferably, WW(AUUUA)WW, where W=A or U. They can be also repeated as an overall, e.g., AUUUAUUA, anywhere from 0 to 10 repeats as example.
Selleckchem Kinase Inhibitor Library that includes a selection of 378 pharmacologically active inhibitors of a number of protein kinases was purchased from Selleckchem. (Houston, Tex., USA). This library is a collection of 378 kinase inhibitors some of which have been approved by the FDA. Each compound is provided as a pre-dissolved 10 mM dimethyl sulfoxide (DMSO) solution as a 96 well format tube (100 μL). The compounds were diluted by OPTI-MEM (Thermo Fisher Scientific, Waltham, Mass., USA) to a final concentration of 5 μM.
Post-transcriptional and control reporter constructs were transfected to MDA-MB-231 cells separately that were seeded in 96-well microplates at a density of 4×10^4 cells/well and incubated overnight. Using lipofectamine 2000 protocol (Invitrogen, Carlsbad, Calif., USA), the cells were transfected with 10 ng of either RPS30-luciferase-control 3′UTR or RPS30-luciferase-ARE 3′UTR reporter plasmids. After 24 h, the cells were treated with each member of protein kinase inhibitors kit for 24 h. Then, luciferase reaction was performed as prescribed by manufacture's protocol (Nano-Glo Luciferase, Promega, Madison, Wis., USA)/well. After 15 minutes, the reporters' activities were measured through the measurement of the chemiluminescence (FIG. 8) after treatment using a Zenith 3100 (Anthos Labtec, Eugendorf, Austria).
Data are presented as means±standard error of the mean (SEM). Two-sample Student's t-test was used to determine the differences between two data sets. One-way analysis of variance (ANOVA) was used to compare three or more data columns. Two-way analysis of variance was used to analyze two groups of data, each having two data columns. Analysis was performed using GraphPad Prism version 6.00 for Windows, (GraphPad Software, La Jolla Calif., USA). For high throughput screening (HTS) hit selection (protein kinase inhibitors), strictly standardized mean difference (SSMD) test was used. This statistical test measures the size of effect of each member in a group relative to the other members. It is the mean of each member divided by the standard deviation of the difference between two random values from different groups. Based on the value of SSMD, the effect of each member of the library was classified as strong (β≥5), moderate (1≤β<5), and weak (β<1). In this study, only drug with SSMD score more than or equal to 5 or less than or equal to −5, i.e. strong β, where selected in the primary screening. […]

[2] = system: TNF-α-ARE luciferase reporter in MDA-MB-231 cells; test: as above; assay type: cell-based; settings: 0.5, 2 and 5 μM, ARE and non-ARE reporters
[3] = system: MDA-MB-231, MCF7, and SKBR3 cell lines; test: mRNA expression in breast cancer cell lines; assay type: cell-based; settings: MCF7, MDA-MB-231 and SKBR3; most of the cancer cell lines
Method: Cells were cultured in six-well plates and either treated with DMSO or drugs for 24 h. Total RNA was then extracted using Trizol reagent (TRI Reagent, Sigma-Aldrich, St Louis, Mo.). The cells were lysed directly on the culture dish by adding 1 ml of the TRI Reagent per 10 cm^2 surface area. Reverse transcription for preparation of cDNA was performed using 3 μg of total RNA, 150 ng random primers, 0.1 M dithiothreitol (DTT), 10 mM deoxynucleotide triphosphate (dNTP) and 200 U of SuperScript II (Invitrogen, Foster City, Calif.). The quantitative RT-QPCR was performed in multiplex in the Chroma 4 DNA Engine cycler (BioRad, Hercules, Calif., USA) using FAM-labelled TaqMan probes (Applied Biosystems, Foster City, Calif., USA) for TTP (ZFP36), HuR (ELAVL1), uPA (PLAU)-CXCR4, MMP-1, MMP-13, IL-8, PLK-1 while a VIC-labelled glyceraldehyde-3-phosphate dehydrogenase (GAPDH) probe was used as the endogenous control. Samples were amplified in triplicate and quantification of relative expression was performed using the estimation of quantitation cycle (Cq) method.
PLK1 kinase, as an example of kinases involved in cancer, is over-expressed in breast cancer cell lines, including MCF7, MDA-MB-231 and SKBR3 when compared to the normal-like MCF10A (FIG. 5A). Many kinases are either over-expressed or constitutively active or hyperactive in cancer states when compared to normal cells. As example of inhibitors that are found in the precision cancer therapy screen, Volasertib and Regorafenib (VEGFR kinase inhibitor) led to reduction in the level of ARE-containing mRNA, uPA in most of the cancer cell lines. (FIG. 5B).
The present inventors further disclose that the effect of PLK-1 inhibition is consistent among different types of breast cancer including triple-negative, […], and ER-PR negative breast cancers, as shown through the actions induced by PLK-1 inhibitor volasertib on MDA-MB-231, MCF7, and SKBR3 cell lines, namely increasing the expression of TTP, decreasing the HuR level, and downregulating the TTP target uPA. […] Accordingly, the present inventor discloses that any protein kinase inhibitor which post-transcriptionally regulates expression of cancer-related genes is suitable for precision cancer therapy. Further disclosed is a method of treatment of cancer comprising administering said protein kinase inhibitor, to a patient in need thereof.

[4] = molecular target: PLK-3 (Homo sapiens, UniProt Q9H4B4); settings: cited from earlier work
Sequence of PLK-3 (Q9H4B4 whole entry, species assumed): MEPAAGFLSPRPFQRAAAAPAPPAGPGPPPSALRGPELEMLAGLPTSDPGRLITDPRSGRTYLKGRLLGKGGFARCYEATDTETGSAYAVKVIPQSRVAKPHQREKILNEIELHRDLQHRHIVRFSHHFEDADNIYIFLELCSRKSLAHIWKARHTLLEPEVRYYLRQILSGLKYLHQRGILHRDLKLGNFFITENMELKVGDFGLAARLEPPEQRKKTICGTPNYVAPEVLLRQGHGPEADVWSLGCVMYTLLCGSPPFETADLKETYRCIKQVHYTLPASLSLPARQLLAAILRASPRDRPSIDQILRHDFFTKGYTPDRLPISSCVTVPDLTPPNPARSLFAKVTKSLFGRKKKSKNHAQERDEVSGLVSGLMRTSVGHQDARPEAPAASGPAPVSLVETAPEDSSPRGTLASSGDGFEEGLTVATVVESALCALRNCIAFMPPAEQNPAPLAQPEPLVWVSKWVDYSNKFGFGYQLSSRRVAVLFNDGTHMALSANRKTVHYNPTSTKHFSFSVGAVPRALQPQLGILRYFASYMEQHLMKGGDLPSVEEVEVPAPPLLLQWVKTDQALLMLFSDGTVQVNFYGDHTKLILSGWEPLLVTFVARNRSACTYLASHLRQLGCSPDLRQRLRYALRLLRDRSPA

[5] = molecular target: PLK-2 (Homo sapiens, UniProt Q9NYY3); settings: cited from earlier work
Sequence of PLK-2 (Q9NYY3 whole entry, species assumed): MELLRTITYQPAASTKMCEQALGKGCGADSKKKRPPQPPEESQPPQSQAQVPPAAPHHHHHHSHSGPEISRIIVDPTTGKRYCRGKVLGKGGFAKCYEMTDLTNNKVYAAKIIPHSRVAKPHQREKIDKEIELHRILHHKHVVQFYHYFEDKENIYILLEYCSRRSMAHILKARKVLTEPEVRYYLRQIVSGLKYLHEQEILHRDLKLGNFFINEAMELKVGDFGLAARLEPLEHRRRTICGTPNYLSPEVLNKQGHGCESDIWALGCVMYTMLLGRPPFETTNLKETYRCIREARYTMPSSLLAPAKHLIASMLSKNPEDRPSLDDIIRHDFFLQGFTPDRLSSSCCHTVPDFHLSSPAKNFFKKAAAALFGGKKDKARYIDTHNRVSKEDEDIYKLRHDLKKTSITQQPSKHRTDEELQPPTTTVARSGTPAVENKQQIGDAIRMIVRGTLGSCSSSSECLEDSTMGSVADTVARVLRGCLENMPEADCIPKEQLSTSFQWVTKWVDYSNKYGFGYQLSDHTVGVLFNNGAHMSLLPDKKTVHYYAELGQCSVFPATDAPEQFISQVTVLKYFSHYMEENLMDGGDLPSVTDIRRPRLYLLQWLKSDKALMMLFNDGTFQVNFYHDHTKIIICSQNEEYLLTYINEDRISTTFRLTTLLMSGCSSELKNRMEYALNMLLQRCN

COc1ccc(S(=O)(=O)N(C(C)=O)c2ccccc2/C=C/c2cc[n+]([O-])cc2)cc1 [HMN-214]
reduction of ARE-reporter activity (in words) [1]: did not reduce

CC[C@@H]1C(=O)N(C)c2cnc(Nc3ccc(C(=O)NC4CCN(C)CC4)cc3OC)nc2N1C1CCCC1 [BI 2536]
reduction of TNF-ARE luciferase reporter activity ([1]; primary screening, 5 μM): 35% | reduction in percent reporter activity in the secondary screening compared to the control reporter ([1]; secondary screening, ARE vs non-ARE control reporter): 16%

CN1CCN(c2ccc(OC(F)(F)F)c(Nc3ncc4c(n3)-c3c(c(C(N)=O)nn3CCO)CC4)c2)CC1 [NMS-P937]
reduction of ARE-reporter activity (in words) [1]: did not reduce

Ro3280
reduction of ARE-reporter activity (in words) [1]: did not reduce

CNC(=O)c1cc(Oc2ccc(NC(=O)Nc3ccc(Cl)c(C(F)(F)F)c3)c(F)c2)ccn1 [Regorafenib]
ARE-dependent mRNA regulation confirmed in later stages of screening compared to a non-ARE reporter [2]: confirmed to be involved in ARE-dependent mRNA regulation | level of ARE-containing mRNA uPA in cancer cell lines [3]: reduction

C[C@@H](Oc1cc(-n2cnc3ccc(CN4CCN(C)CC4)cc32)sc1C(N)=O)c1ccccc1C(F)(F)F [GSK461364]
reduction of ARE-reporter activity (in words) [1]: did not reduce

COc1cc(OC)c(/C=C/S(=O)(=O)Cc2ccc(OC)c(NCC(=O)O)c2)c(OC)c1 [rigosertib]
activity on PLK-3 [4]: no activity | reduction of ARE-reporter activity (in words) [1]: did not reduce | selectivity (PLK-1) against PLK-2 [5]: more than 30 fold

Cc1ccc(NC(=O)c2cccc(C(C)(C)C#N)c2)cc1Nc1ccc2ncn(C)c(=O)c2c1 [AZ628]
ARE-dependent mRNA regulation confirmed in later stages of screening compared to a non-ARE reporter [2]: confirmed to be involved in ARE-dependent mRNA regulation

Reference: patent publication US20210255168A1, “A METHOD OF PRECISION CANCER THERAPY” (KING FAISAL SPECIALIST HOSPITAL & RESEARCH CENTRE, priority 2018, published 2021)
